Assay results taken from the supplement of paper PMC12317010.
Where a name gives a salt, the structure may show the parent alone.

Experiment: collision cross section in nitrogen (drift tube, single-field); higher = larger gas-phase ion size
[1] = ion type: [M+H], ion source: APCI, ion mode: Positive
[2] = ion type: [M+H], ion source: ESI, ion mode: Positive
[3] = ion type: [M-H], ion source: ESI, ion mode: Negative
[4] = ion type: [M+], ion source: APCI, ion mode: Positive
[5] = ion type: [M+Na], ion source: ESI, ion mode: Positive
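Further: chemical standards at 10 µM analysed by drift tube IMS-QTOF MS in about 3.95 torr nitrogen, mean of duplicate injections differing ≤1%, mass error below 10 ppm.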

In the case of COc1ccc2nc(N)sc2c1 [6-Methoxy-2-benzothiazolamine], the “collision cross section in nitrogen” value [1] is reported as 136.6 Å² and the “collision cross section in nitrogen” value [2] is reported as 136.6 Å².
In the case of Cc1ccc2c(c1)CCCN2 [6-Methyl-1,2,3,4-tetrahydroquinoline], the “collision cross section in nitrogen” value [1] is reported as 134.5 Å² and the “collision cross section in nitrogen” value [2] is reported as 134.8 Å².
In the case of Cc1cc(=O)[nH]c(=S)[nH]1 [6-Methyl-2-thiouracil], the “collision cross section in nitrogen” value [3] is reported as 123.1 Å².
For Cc1ccc(O)cn1 [6-Methyl-3-hydroxypyridine], the “collision cross section in nitrogen” value [1] was 118.1 Å², the “collision cross section in nitrogen” value [2] was 119.4 Å² and the “collision cross section in nitrogen” value [3] was 120.4 Å².
With Cc1cccc(N)n1 [6-Methylpyridin-2-amine] the “collision cross section in nitrogen” value [1] was 118.6 Å² and the “collision cross section in nitrogen” value [2] was 119.5 Å².
For Cc1ccc2ncccc2c1 [6-Methylquinoline], the “collision cross section in nitrogen” value [1] was 125.7 Å², the “collision cross section in nitrogen” value [2] was 125.8 Å² and the “collision cross section in nitrogen” value [4] was 124.3 Å².
In the case of Cc1cc(=O)[nH]c(=O)[nH]1 [6-Methyluracil], the “collision cross section in nitrogen” value [3] is reported as 120.5 Å².
For O=[N+]([O-])c1ccc2[nH]cnc2c1 [6-Nitrobenzimidazole], the “collision cross section in nitrogen” value [1] was 136.5 Å², the “collision cross section in nitrogen” value [2] was 136.5 Å² and the “collision cross section in nitrogen” value [3] was 123.6 Å².
For Nc1nc(N)nc(-c2ccccc2)n1 [6-Phenyl-1,3,5-triazine-2,4-diamine], the “collision cross section in nitrogen” value [1] was 140.2 Å² and the “collision cross section in nitrogen” value [2] was 140.6 Å².
With Nc1nc2nc[nH]c2c(=S)[nH]1 [6-Thioguanine] the “collision cross section in nitrogen” value [1] was 132.4 Å², the “collision cross section in nitrogen” value [2] was 133.4 Å² and the “collision cross section in nitrogen” value [5] was 142.3 Å². The “collision cross section in nitrogen” value [3] was 128.9 Å².
In the case of NC(=O)c1ccc(N)nc1 [6-aminopyridine-3-carboxamide], the “collision cross section in nitrogen” value [1] is reported as 130.2 Å², the “collision cross section in nitrogen” value [2] is reported as 131.3 Å² and the “collision cross section in nitrogen” value [3] is reported as 124.5 Å².
For Cc1cc(C)c(O)c(C(C)(C)C)c1 [6-tert-Butyl-2,4-xylenol], the “collision cross section in nitrogen” value [3] was 144.9 Å².
With O=[PH]1Oc2ccccc2-c2ccccc21 (centres undefined) [6H-Dibenzo[c,e][1,2]oxaphosphinine 6-oxide] the “collision cross section in nitrogen” value [2] was 146.1 Å² and the “collision cross section in nitrogen” value [3] was 145.8 Å².
With O=C1c2ccccc2C(=O)c2c1ccc1ccccc21 [7,12-Benz(a)anthraquinone] the “collision cross section in nitrogen” value [3] was 155.7 Å².
In the case of Cc1c2ccccc2c(C)c2c1ccc1ccccc12 [7,12-Dimethylbenz[a]anthracene], the “collision cross section in nitrogen” value [4] is reported as 155.2 Å².
With Cc1cc(=O)oc2cc(N(C)C)ccc12 [7-(Dimethylamino)-4-methylcoumarin] the “collision cross section in nitrogen” value [1] was 140.9 Å², the “collision cross section in nitrogen” value [2] was 141.3 Å² and the “collision cross section in nitrogen” value [5] was 165.6 Å². The “collision cross section in nitrogen” value [3] was 148.6 Å².
For Nc1ccc2c(O)cc(S(=O)(=O)O)cc2c1 [7-Amino-4-hydroxynaphthalene-2-sulfonic acid], the “collision cross section in nitrogen” value [3] was 153.3 Å².
In the case of CCN(CC)c1ccc2c(C)cc(=O)oc2c1 [7-Diethylamino-4-methylcoumarin], the “collision cross section in nitrogen” value [1] is reported as 152.6 Å², the “collision cross section in nitrogen” value [2] is reported as 152.6 Å² and the “collision cross section in nitrogen” value [5] is reported as 176.4 Å². For the same compound, the “collision cross section in nitrogen” value [3] was 159.4 Å².
For CCCCC(CC)CCC(CC(C)C)OS(=O)(=O)O (centres undefined) [7-Ethyl-2-methyl-4-undecanolsulfate, sodium salt], the “collision cross section in nitrogen” value [3] was 175.2 Å².
In the case of O=S(=O)(O)c1ccc(O)c2ncccc12 [8-Hydroxyquinoline-5-sulfonic acid hydrate (1:x)], the “collision cross section in nitrogen” value [2] is reported as 146.7 Å² and the “collision cross section in nitrogen” value [3] is reported as 142.4 Å².
With Nc1c2ccccc2nc2ccccc12 [9-Aminoacridine hydrochloride monohydrate] the “collision cross section in nitrogen” value [1] was 138.8 Å², the “collision cross section in nitrogen” value [2] was 138.9 Å² and the “collision cross section in nitrogen” value [4] was 139 Å². The “collision cross section in nitrogen” value [3] was 139.3 Å².
With CCn1c2ccccc2c2cc([N+](=O)[O-])ccc21 [9-Ethyl-3-nitro-9H-carbazole] the “collision cross section in nitrogen” value [2] was 152 Å².
For O=[N+]([O-])c1c2ccccc2cc2ccccc12 [9-Nitroanthracene], the “collision cross section in nitrogen” value [1] was 145.5 Å² and the “collision cross section in nitrogen” value [3] was 145.1 Å².
In the case of Oc1cc2ccccc2c2ccccc12 [9-Phenanthrol], the “collision cross section in nitrogen” value [3] is reported as 140.7 Å².
With CC(C)CCCCCCCCCCCCCCC(=O)O [16-Methylheptadecanoic acid] the “collision cross section in nitrogen” value [3] was 177.5 Å².
With CCCCCC(=O)O[C@]1(C(C)=O)CC[C@H]2[C@@H]3CCC4=CC(=O)CC[C@]4(C)[C@H]3CC[C@@]21C [17-((1-Oxohexyl)oxy)pregn-4-ene-3,20-dione] the “collision cross section in nitrogen” value [5] was 225.6 Å² and the “collision cross section in nitrogen” value [3] was 212.9 Å².
In the case of C[C@]12CCC(=O)C=C1CC[C@@H]1[C@@H]2CC[C@@]2(C)[C@H]1CC[C@]2(C)O [17-Methyltestosterone], the “collision cross section in nitrogen” value [2] is reported as 177.6 Å².
For C#C[C@]1(O)CC[C@H]2[C@@H]3CCc4cc(O)ccc4[C@H]3CC[C@@]21C [17alpha-Ethinylestradiol], the “collision cross section in nitrogen” value [3] was 182.3 Å².
With CC(=O)[C@@]1(O)CC[C@H]2[C@@H]3CCC4=CC(=O)CC[C@]4(C)[C@H]3CC[C@@]21C [17alpha-Hydroxyprogesterone] the “collision cross section in nitrogen” value [3] was 184.4 Å².
With C[C@]12C=CC3=C4CCC(=O)C=C4CC[C@H]3[C@@H]1CC[C@@H]2O [17beta-Trenbolone] the “collision cross section in nitrogen” value [1] was 166.2 Å², the “collision cross section in nitrogen” value [2] was 166.4 Å² and the “collision cross section in nitrogen” value [5] was 192.3 Å². For the same compound, the “collision cross section in nitrogen” value [3] was 168.7 Å².
With C[C@]12CC[C@H]3[C@@H](CCC4=CC(=O)CC[C@@]43C)[C@@H]1CC[C@@H]2C(=O)CO [21-Hydroxyprogesterone] the “collision cross section in nitrogen” value [2] was 185.7 Å² and the “collision cross section in nitrogen” value [3] was 186.5 Å².
With C/C=C/C=C/CO [(2E,4E)-Hexa-2,4-dien-1-ol] the “collision cross section in nitrogen” value [4] was 117.4 Å².
For CNC[C@H](O)[C@@H](O)[C@H](O)[C@H](O)CO [(2R,3R,4R,5S)-6-(Methylamino)hexane-1,2,3,4,5-pentol], the “collision cross section in nitrogen” value [1] was 141 Å², the “collision cross section in nitrogen” value [2] was 141.3 Å² and the “collision cross section in nitrogen” value [5] was 147.7 Å². For the same compound, the “collision cross section in nitrogen” value [3] was 140.4 Å².
With CC(Cc1ccc(C(C)(C)C)cc1)CN1C[C@@H](C)O[C@@H](C)C1 (stereo partly drawn) [(2R,6S)-Fenpropimorph] the “collision cross section in nitrogen” value [1] was 173.1 Å² and the “collision cross section in nitrogen” value [2] was 173.5 Å².
With CC1(C)CCC[C@]2(C)[C@H]3CC(=O)O[C@]3(C)CC[C@@H]12 [(3aR)-(+)-Sclareolide] the “collision cross section in nitrogen” value [5] was 181.5 Å².
With Nc1ccc([As](=O)(O)O)cc1 [(4-Aminophenyl)arsonic acid] the “collision cross section in nitrogen” value [2] was 130.9 Å², the “collision cross section in nitrogen” value [5] was 144.9 Å² and the “collision cross section in nitrogen” value [3] was 139 Å².
With CCCCC[C@H](O)CC(=O)CCc1ccc(O)c(OC)c1 [(6)-Gingerol] the “collision cross section in nitrogen” value [5] was 180.3 Å² and the “collision cross section in nitrogen” value [3] was 169.5 Å².
With CCCCCC[C@@H](O)C/C=C\CCCCCCCC(=O)O [(9Z,12R)-12-Hydroxyoctadec-9-enoic acid] the “collision cross section in nitrogen” value [5] was 189.7 Å² and the “collision cross section in nitrogen” value [3] was 178.6 Å².
With CCOC(=O)[C@@H](O)[C@H](O)C(=O)OCC [(-)-Diethyl-D-tartrate] the “collision cross section in nitrogen” value [5] was 153.6 Å².
For O=C1OC[C@H](Cc2cccc(O)c2)[C@H]1Cc1cccc(O)c1 [(-)-Enterolactone], the “collision cross section in nitrogen” value [5] was 178.2 Å² and the “collision cross section in nitrogen” value [3] was 165.3 Å².
For O=C(O[C@@H]1Cc2c(O)cc(O)cc2O[C@@H]1c1cc(O)c(O)c(O)c1)c1cc(O)c(O)c(O)c1 [(-)-Epigallocatechin gallate], the “collision cross section in nitrogen” value [5] was 212.4 Å².
For CN1CCC[C@H]1c1cccnc1 [(-)-Nicotine], the “collision cross section in nitrogen” value [1] was 136.5 Å² and the “collision cross section in nitrogen” value [2] was 137.2 Å².
For CNC[C@H](O)c1cccc(O)c1 [(-)-Phenylephrine hydrochloride], the “collision cross section in nitrogen” value [3] was 138.7 Å².
For C=C(C)C(=O)OCCOC1CC2CC1C1C=CCC21 (centres undefined) [(Dicyclopentadienyloxy)ethyl methacrylate], the “collision cross section in nitrogen” value [5] was 170.7 Å².
In the case of O=C(N[C@H]1CN2CCC1CC2)c1cc2ccoc2cn1 [(R)-N-(Quinuclidin-3-yl)furo(2,3-C)pyridine-5-carboxamide], the “collision cross section in nitrogen” value [1] is reported as 168.1 Å², the “collision cross section in nitrogen” value [2] is reported as 168 Å² and the “collision cross section in nitrogen” value [5] is reported as 181 Å². The “collision cross section in nitrogen” value [3] was 172.1 Å².
For O=c1[nH]c(=O)n([C@H]2CCCO2)cc1F [(R)-Tegafur], the “collision cross section in nitrogen” value [3] was 142.2 Å².
For CCCCCCCC/C=C\CCCCCCCCN [(Z)-9-Octadecenylamine], the “collision cross section in nitrogen” value [2] was 180.2 Å².
With CCCC/C=C\CCCCCCCCCC=O [(Z)-11-Hexadecenal] the “collision cross section in nitrogen” value [3] was 163.6 Å².
With CCCCCC/C=C\CCCCCCCC(=O)O [(Z)-Hexadec-9-enoic acid] the “collision cross section in nitrogen” value [3] was 168.4 Å².
For O=C(NC(=O)c1cc(F)c(F)cc1Cl)Nc1cc(F)ccc1N1CCC(C(=O)O)CC1 [AVE2865], the “collision cross section in nitrogen” value [1] was 202.7 Å², the “collision cross section in nitrogen” value [2] was 202.4 Å² and the “collision cross section in nitrogen” value [5] was 195.9 Å². For the same compound, the “collision cross section in nitrogen” value [3] was 196.2 Å².
With O=C(O)c1ccc2c(c1)nc(C(=O)NC1CCN(C3CC3)CC1)n2Cc1cc(-c2ccc(Cl)s2)on1 [AVE3247] the “collision cross section in nitrogen” value [1] was 228.1 Å², the “collision cross section in nitrogen” value [2] was 228.8 Å² and the “collision cross section in nitrogen” value [5] was 242.2 Å². For the same compound, the “collision cross section in nitrogen” value [3] was 249.7 Å².
For CC[C@H](NC(=O)c1cc(F)ccc1NS(=O)(=O)c1cccc2cccnc12)c1ccccc1 [AVE3295], the “collision cross section in nitrogen” value [1] was 198 Å², the “collision cross section in nitrogen” value [2] was 197.4 Å² and the “collision cross section in nitrogen” value [5] was 205.8 Å². For the same compound, the “collision cross section in nitrogen” value [3] was 203 Å².
For NCc1cccc(C2CCN(C(=O)c3ccc(C#Cc4ccccc4F)o3)CC2)c1 [AVE5638], the “collision cross section in nitrogen” value [1] was 192.1 Å² and the “collision cross section in nitrogen” value [2] was 192.4 Å².
With CCOC(=O)O[C@H](C)OC(=O)c1ccc2c(c1)cc(C(=O)NC1CCN(C(C)C)CC1)n2Cc1cc(-c2ccc(Cl)s2)on1 [AVE6324] the “collision cross section in nitrogen” value [1] was 268 Å², the “collision cross section in nitrogen” value [2] was 267.7 Å² and the “collision cross section in nitrogen” value [5] was 276.4 Å². For the same compound, the “collision cross section in nitrogen” value [3] was 269.8 Å².
With CCCOc1sc(C(=O)N2CCC(c3cc(CN)ccc3F)CC2)c(C)c1Br [AVE8923] the “collision cross section in nitrogen” value [1] was 197.2 Å² and the “collision cross section in nitrogen” value [5] was 204.9 Å².
